Values belong to the substance of their own block, whether it stands above or below them. Ends that are not written are not given here. coumarin = not defined here
Tests used:
[1] = test system: anti-EVEFR antibodies; assay: ORIGEN non-sandwich competition of peptides with binding of ruthenylated anti-EVEFR antibodies to biotinylated EVEFR; parameters: species or system rabbit; details: peptide added over a broad concentration range; FIGS. 3A, 3B
Method: Antibody specificity also was evaluated for both lots. An ORIGEN Analyzer (described below) was utilized in a non-sandwich assay to compare the ability of related polypeptides to compete with the binding of ruthenylated anti-EVEFR antibodies to biotinylated EVEFR (SEQ. ID. NO. 58). Certain peptides and conjugated peptides were added as treatments over a broad concentration range, and competitive titrations were made. […] The normal antigen is not acetylated.
Additionally, the specificity of the antibody raised against the EVEFR (SEQ.ID.NO.:58) sequence is tight enough that a conservative change in the epitope presented to the antibody, namely DVEFR(SEQ ID. NO. 60) where the NH-terminus E is conservatively changed to D, the antibody would only recognize the bona fide cleavage product. When measuring products in a cell-based environment, where thousands and perhaps millions of different proteins and epitopes are presented to the antibody, such specificity is required for the absolute measurement of the specific BACE cleavage product. Overall, the polyclonal rabbit antibodies raised against EVEFR (SEQ.ID.NO.:58) are shown to be sufficiently specific for use in detection analyses.
In certain embodiments the antibodies of the present invention are used in an electrochemiluminescence (ECL) detection method known in the art as “Origen” technology (Yang et al., 1994, Bio/Technology 12:193–194; Khorkova et al., 1998. Journal of Neuroscience Methods 82:159–166), and an Origen 1.5 Analyzer (Igen Inc., Gaithersburg, Md.). In embodiments using this ECL-based ORIGEN technology, each purified antibody lot is derivatized to a ruthenium tris-bipyridyl compound. The following provides one example of one of such embodiments.

[2] = test system: HEK293T cells; assay: Aβ (IP/Western) and sAPP (Western) produced by APP β-site mutants transiently transfected into HEK293T cells; type: cell-based; details: for Aβ level / sAPP level: transfected into 293T cells; for sAPP level: Western blot with LN27; for Aβ production compared with Swedish mutant and wild type APP695: HEK293T cells
Description: In order to assess the relative suitability of modified β-secretase substrates as substrates that are more reactive than the wild type KMDA cleavage site, plasmid DNA constructs were made expressing 21 different modified β-secretase cleavage site sequences. Table 1, below, summarizes data obtained from most of these modified β-secretase substrates in HEK293T cells. The HEK293T cells were transfected with plasmids containing the genetic sequences for the APP695 polypeptides that contain each of these beta-site substitutions. These plasmids were prepared using the method described above in Example 1. Transient transfection was performed using LipofectaminePlus reagent (Gibco/BRL, Rockville, Md.) according to the instructions of the manufacturer. Media was harvested 48 hrs post transfection. Then Western blot analysis was used to determine levels of sAPP and IP/Western to determine levels of Aβ. Several volumes of conditioned media, 20 μl, 10 μl, 5 μl, 2.5 μl, from the transiently transfected cells were run on 10% SDS-PAGE gels and transferred to PVDF for the measurement of sAPP. Each blot contained a titration of wild type APP transfected conditioned media to normalize for any experimental variations derived from transferring of the gels and western blot detection. The blots were then probed with the antibody LN27 (Zymed, Calif.) to detect the secreted APP, sAPP. Densitometry of each western blot determined the relative amount of total APP expressed in each transfection.
To determine the levels of Aβ, each of the conditioned media was immuno-precipitated and analyzed via the following method. 5 μg of monoclonal antibody G2-10 (a monoclonal antibody that immunologically binds to the carboxyl end of Aβ40, licensed from University of Heidelberg) was added to 1 ml of each conditioned media. The mixture was rotated overnight at 4° C. for 16 hours. 25 μl of a 50% slurry of Protein A sepharose Fast flow beads (Amersham, N.J.) was added and incubation continued, rotating, for 2 hours at 4° C. The beads were pelleted and the supernatant was removed. The beads were washed once with 1 ml PBS. This material was then run on SDS-Tricine gels for analysis. 20 μl of 2×tricine loading buffer was added to the pellet and the mixture was heated at 95° C. for 5 minutes. A pipette tip was used to mix and load the whole mixture (beads included) onto a Bio-Rad 10–20% Tricine gel. The gels were electrophoresed at 125 Volts for 2 hours and 15 minutes and then transferred onto 0.2 μm nitrocellulose backed by a 0.1 μm nitrocellulose membrane for 75 minutes at 100V constant. Blots were then washed in PBS and boiled in PBS for 5 minutes before blocking in PBS plus 0.05% Tween-20 (PBST) with 5% non-fat milk for 60 minutes at room temperature. The milk was washed off twice with PBST and the blots were incubated overnight at 4° C. with G2-10 in PBST (1:1000 dilution). Blots were washed five times for 5 minutes each with large volumes of PBST and the secondary antibody of Goat anti-mouse IgG2b-HRP (Southern Biotechnology Associates, Inc., Birmingham, Ala.) was added at 1:5000 in PBST-5% milk and incubated, rocking, for 1 hour at room temperature. The blots were again washed, five times for 10 minutes each in large volumes of PBST. The substrate Pico ECL (Pierce) was added for 5 minutes and the blots were exposed to Kodak BioMax film. After western analysis was complete, the bands were quantitated by densitometry. For both the sAPP and the Aβ, the GFP control plasmid transfection serves as the background reference level (1×).

[3] = test system: immortalized β-secretase-/-mouse fibroblast cells; assay: Aβ production after transfection into immortalized β-secretase-/- mouse fibroblast cells, with or without human β-secretase; type: cell-based; details: no β-secretase co-transfected
Description: Production of Aβ in β-secretase-/-cells could be rescued by co-transfection of the APP-derived polypeptides comprising modified β-secretase cleavage site sequences with human β-secretase.

[4] = test system: Cultured cells; details: cultured cells expressing cDNA encoding APP; cited from earlier work
[5] = test system: 2081 antibody; assay: Competition of peptides against biotinylated-SEVNF for binding of the 2081 antibody; parameters: species or system rabbit
Method: To determine the specificity of the 2081 antibody, competition experiments against the biotinylated-SEVNF with the following peptides were performed: SEVNF, SEVN, SEVNFE, SEVNL, and SEVNLD. The experiment was performed similar to the experiment outlined in Example 2 to determine the specificity of antibody 2081.

[6] = target: BACE 1 (Homo sapiens, UniProt P56817); assay: Homogeneous end point HPLC assay of BACE 1 cleavage of coumarin substrate; type: biochemical
Method: A typical reaction contains 2 nM enzyme, 1.0 μM of the substrate, and buffer (50 mM NaOAc, pH 4.5, 0.1 mg/ml BSA, 0.2% CHAPS, 15 mM EDTA and 1 mM deferoxamine) in a total reaction volume of 100 μL. The reaction is proceeded for 30 min and the reaction is stopped by the addition of 25 μL of 1 M Tris-HCl, pH 8.0. The resulting reaction mixture was loaded on the HPLC and the product was separated from substrate with 5 min linear gradient. […] The enzyme used in these studies was soluble (transmembrane domain and cytoplasmic extension excluded) human protein produced in a baculovirus expression system. […] All experiments were conducted at room temperature using the standard reaction conditions described above. To determine the IC50 of the compound, four parameters equation is employed for curve fitting.

BACE 1, sequence (P56817 46-457 limits assumed): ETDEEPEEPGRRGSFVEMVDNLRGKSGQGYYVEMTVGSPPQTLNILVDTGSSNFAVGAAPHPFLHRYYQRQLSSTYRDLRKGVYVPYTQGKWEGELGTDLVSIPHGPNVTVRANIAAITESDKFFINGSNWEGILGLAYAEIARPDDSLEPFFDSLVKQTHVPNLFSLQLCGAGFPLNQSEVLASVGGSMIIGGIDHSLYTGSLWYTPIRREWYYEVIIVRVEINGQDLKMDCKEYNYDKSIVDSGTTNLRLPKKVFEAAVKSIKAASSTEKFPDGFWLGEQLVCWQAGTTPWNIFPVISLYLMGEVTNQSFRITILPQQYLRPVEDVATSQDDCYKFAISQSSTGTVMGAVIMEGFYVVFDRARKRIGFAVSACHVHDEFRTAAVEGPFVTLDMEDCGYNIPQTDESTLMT

competition with biotinylated EVEFR for anti-EVEFR binding [1]: unable to compete for binding
Substance: DAEFR (peptide for use in antibody specificity evaluation)

competition with biotinylated EVEFR for anti-EVEFR binding [1]: somewhat higher level of interference
Substance: DVEFR (peptide for use in antibody specificity evaluation)

competition with biotinylated EVEFR for anti-EVEFR binding [1]: competed with biotinylated EVEFR
Substance: EVEFR (peptide simulating cleaved portion from carboxy side of novel sequence at known enzyme cleavage site) [penta-peptide at the amino-terminal end of CTFβ from NFEV or FFEV substrates]

Substance: FFAV: APP695-derived polypeptide with FFAV at the β-secretase cleavage site
Aβ level [2]: below the limit of detection | sAPP level [2]: below the limit of detection

Substance: KFAA: APP695-derived polypeptide with KFAA at the β-secretase cleavage site
Aβ level [2]: below the limit of detection | sAPP level [2]: below the limit of detection

Substance: KYAA: APP695-derived polypeptide with KYAA at the β-secretase cleavage site
Aβ level [2]: below the limit of detection | sAPP level [2]: below the limit of detection

Substance: NFAV: APP695-derived polypeptide with NFAV at the β-secretase cleavage site
Aβ level [2]: below the limit of detection | sAPP level [2]: below the limit of detection

Substance: NFDV: APP695-derived polypeptide with NFDV at the β-secretase cleavage site
Aβ level [2]: below the limit of detection | sAPP level [2]: below the limit of detection

Substance: NFEA: APP695-derived polypeptide with NFEA at the β-secretase cleavage site
Aβ level [2]: below the limit of detection | sAPP level [2]: below the limit of detection | production of Aβ [3]: no production of Aβ was observed

Substance: NFEV: APP695-derived polypeptide with NFEV at the P2-P1-P1′-P2′ β-secretase cleavage site
Aβ production compared with Swedish mutant and wild type APP695 [2]: high levels of Aβ, comparable to that generated by the APP Swedish mutant | rate of cleavage relative to similar substrate with wild-type KMDA sequence ([2]; in an APP backbone, expressed in tissue culture cells): 15–20 times | production of Aβ [3]: no production of Aβ was observed

Substance: NFTV: APP695-derived polypeptide with NFTV at the β-secretase cleavage site
Aβ level [2]: below the limit of detection | sAPP level [2]: below the limit of detection

Substance: NLDA (Swedish): APP Swedish mutant, NLDA at the β-secretase cleavage site
Aβ produced relative to cells expressing wild-type APP [4]: 6–8 fold

Substance: NLDV: APP695-derived polypeptide with NLDV at the β-secretase cleavage site
Aβ production compared with Swedish mutant and wild type APP695 [2]: over three times the level of wild type APP695 | Aβ Level produced by APP β-site mutants in HEK293T cells ([2]; media 48 hrs post transfection, IP/Western with G2-10, densitometry, GFP control = 1X): 10–15X | production of Aβ [3]: no production of Aβ was observed

Substance: NYAA: APP695-derived polypeptide with NYAA at the β-secretase cleavage site
Aβ level [2]: below the limit of detection | sAPP level [2]: below the limit of detection

Substance: NYDV: APP695-derived polypeptide with NYDV at the β-secretase cleavage site
Aβ level [2]: below the limit of detection | sAPP level [2]: below the limit of detection

Substance: NYEA: APP695-derived polypeptide with NYEA at the β-secretase cleavage site
Aβ level [2]: below the limit of detection | sAPP level [2]: below the limit of detection

competition against biotinylated-SEVNF for binding of the 2081 antibody [5]: could not compete
Substance: SEVN

competition against biotinylated-SEVNF for binding of the 2081 antibody [5]: could compete
Substance: SEVNF (SEVNF-OH) [five C-terminal amino acids of the modified sAPPβ fragment]

competition against biotinylated-SEVNF for binding of the 2081 antibody [5]: could not compete
Substance: SEVNFE

competition against biotinylated-SEVNF for binding of the 2081 antibody [5]: limited amount of competition | effectiveness of competition relative to SEVNF ([5]; less effective than SEVNF): 100 fold
Substance: SEVNL

competition against biotinylated-SEVNF for binding of the 2081 antibody [5]: could not compete
Substance: SEVNLD

competition with biotinylated EVEFR for anti-EVEFR binding [1]: slight competitive interference
Substance: VEFR (peptide simulating cleaved portion from carboxy side of novel sequence at known enzyme cleavage site, lacking end amino acid)

competition with biotinylated EVEFR for anti-EVEFR binding [1]: does not bind well to the antibody
Substance: acetylated-EVEFR (Ac-EVEFR)

substrate processed by BACE 1 ([6]; 2 nM enzyme, 1.0 μM substrate, 30 min, pH 4.5, room temperature): less than 10% | Km ([6]; cannot be determined due to limit of solubility of the substrate): > 100 µM
Substance: coumarin-CO-REVNFEVEFR

competition with biotinylated EVEFR for anti-EVEFR binding [1]: did not compete well
Substance: coumarin-bound deca-peptide: coumarin-bound deca-peptide including the EVEFR sequence; possibly coumarin-CO-REVNFEVEFR (coumarin-REVNFEVEFR; not fully specified; printed as coumarin-CO-REVNFEVEFR; reading uncertain)

Reference: patent publication US7196163B2, “Assays using amyloid precursor proteins with modified β-secretase cleavage sites to monitor β-secretase activity” (Merk & Co., Inc., priority 2001, dated 2007)
